Data reported in patent US20040214900A1, “Method of treating strongyloides infections and medicaments therefor” (priority 2003, published 2004).
Where two headings read alike, the source gives them in different places. Marks after values point to notes of the source that are not given here.

Legend:
[1] = test system: Strongyloides stercoralis infective larvae; test: Immobilisation of S. stercoralis infective larvae incubated in 0.6% AI suspensions; type: cell-based; conditions: for Relative activity (RA), immobilisation / Larvae immobilized: 0.6% AI; for Relative activity (RA), immobilisation: RA of albendazole used as reference; for It50 (hours) ±95% Fiducial limits (FL), immobilisation time: 0.6% active ingredient, S. stercoralis infective larvae; for Larvae immobilized: within one hour's exposure
Method: (§1) Coproculture of about 30 g of fresh, moistened canine faeces was conducted using granular charcoal (1:1 v:v) in sealed 10 cm diameter Petri dishes. Cultures were maintained at 26° C. under semi-lighted conditions. S. stercoralis filariform larvae typically migrated to the surface of the culture and eventually into water droplets that condensed on the inner surface of the lid. Larvae appearing within 2 days were mostly those accruing from the homogonic cycle and usually occurred in insufficient numbers for bioassay. After five to eight days had elapsed free-living adult worms had effected a 50-fold increase in the population density (heterogonic cycle).
The effectiveness of the tested compounds was evaluated by incubating larvae obtained as in Example 1 in suspensions containing 0.6% of Compound (1) as the active ingredient (AI). Incubation times were 1, 2, 3, 4, 5, 6, 24, 48, 72, and 96 hours. Three (3) replicates were run in each assay, using >>100 larvae per replicate.
The anthelmintic effectiveness of Compound (1) and of three commercial anthelmintics, namely albendazole, thiabendazole, and ivermectin, was evaluated, and the results are summarized in Table 1. Compound (1) immobilized 100% of the larvae within one hour's exposure. This was also true for ivermectin. However, similar concentrations of albendazole and thiabendazole immobilized 50% of the infective larvae only after 73.7 and 78.9 hours, respectively.

[2] = test system: Strongyloides stercoralis infective larvae; test: microbe, parasite or virus in culture; type: cell-based; conditions: for Relative activity (RA), mortality: RA of Compound (1) used as reference; for Lt50 (hours) ±95% Fiducial limits (FL), mortality time: S. stercoralis infective larvae; for mortality at 0.6 % strength: Strongyloides stercoralis, read-out: Larvae killed (mortality)
Method: as §1
The lethality of the tested compounds was evaluated by incubating larvae obtained as in Example 1 in suspensions containing 0.6% of Compound (1) as the active ingredient (AI).
The mortality of the larvae was assessed by a dye exclusion test such as have been used successfully to indicate viability in parasitic platyhelminths. (See Halton & Arme (1971) Exp. Parasit. 30:54; Robinson & Arme (1985) Ann. Trop. Med. & Parasit. 79:17.) Similar testing was applied to S. stercoralis larvae. In these tests, use of
0.01% v/v eosin in LNSS (ELNSS) in an eosin-exclusion test indicated death of larvae in less than 10 minutes and had no effect on healthy individuals.

Compound	Relative activity (RA), immobilisation [1]	It50 (hours) ±95% Fiducial limits (FL), immobilisation time [1]	It50 (hours) ±95% Fiducial limits (FL), immobilisation time ([1]; listed as thiabendazole)	Relative activity (RA), mortality ([2]; 0.6% AI)	Lt50 (hours) ±95% Fiducial limits (FL), mortality time ([2]; 0.6% AI)	mortality at 0.6 % strength ([2]; 120 h)	Larvae immobilized [1]	Lt50 (hours) ±95% Fiducial limits (FL), mortality time ([2]; 0.6% AI, listed as Compound(1))	Fold increase in lethal activity over albendazole ([2]; Lt50 basis, 0.6% AI, versus albendazole)	Fold increase in lethal activity over ivermectin ([2]; Lt50 basis, 0.6% AI, versus ivermectin)	Fold increase in lethal activity over thiabendazole ([2]; Lt50 basis, 0.6% AI, versus thiabendazole)	mortality at 0.6 % strength ([2]; 6 h, after six hours, 0.6% AI)	It50 (hours) ±95% Fiducial limits (FL), immobilisation time ([1]; listed as albendazole)	Lt50 (hours) ±95% Fiducial limits (FL), mortality time ([2]; 0.6% AI, listed as ivermectin)	Larvae killed (mortality) ([2]; after 24 hours, 0.6% AI)
c1ccc2[nH]c(-c3cscn3)nc2c1 [Thiabendazole]	0.93	78.9 (65.5-92.8) hours	78.9 h	0.01	178.9 h	14.1%	–	–	–	–	–	–	–	–	–
CCCCCCCCC/C=C/C=O [Compound (1), E-2-dodecenal]	>1.00	<1* hours	–	1.00*	2.2 h	–	100%	2.2 (1.2-3.3) hours	66.1 fold	7.1 fold	81.3 fold	90.8%	–	–	–
CCCSc1ccc2nc(NC(=O)OC)[nH]c2c1 [Albendazole, albendazole]	1.00	73.7 (60.4-87.0) hours	–	0.02	145.3 h	37.4%	–	–	–	–	–	–	73.7 h	–	–
ivermectin	>1.00	<1* hours	–	0.14	15.7 (12.5-18.1) hours	–	100%	–	–	–	–	–	–	15.7 h	89.0%
